# Reference: patent US20070286896A1, “Therapeutic or Diagnostic Drug for Inflammatory Disease Comprising Targeting Liposome” (NATIONAL INSTITUTE OF ADVANCED INDUSTRIAL SCIENCE AND …, priority 2003, published 2007)
# Assays:
# Assay type in all cases: in vivo, DBA/1J mice
# [1] = test system: Collagen type II induced arthritis (CIA) mice; assay: Medical treatment of RA mice by intravenous administration of DDS liposomes
# Method: (§1) A water solution of the collagen and the CFA were mixed at a volume ratio of 2:1 to prepare an emulsion containing 200 μg of the collagen per 100 μL thereof. This emulsion was subcutaneously injected into the bottom of the tails of the mice (Day 0). After 21 days from the administration (Day 21), a water solution of the collagen and the IFA were mixed at a volume ratio of 2:1 to prepare an emulsion containing 200 μg of the collagen per 100 μL thereof, and this emulsion was subcutaneously injected again into the bottom of the tails of the mice.
# (§2) After the injection, the limbs of the mice were observed on a three times/week basis, and inflammation was quantitatively determined by giving it a point according to the following criteria: for each limb, normal: 0 point, mild inflammation or redness: 1 point, severe redness, dilatation, or reduced use: 2 points, and deformed palm, plantar region, or joint region: 3 points (0 point lowest, 12 points highest, per mouse). Inflammatory activity (hereinafter, referred to as IA) was determined by applying the obtained point to the following formula: Inflammatory activity (%)=points of all limbs/12×100.
# Mice with arthritis received medical treatment by injecting a therapeutic drug to the tail veins thereof. The intravenous injection was performed on a twice/week basis for a period from Day 28 to Day 46. […]
# [2] = test system: Collagen type II induced arthritis (CIA) mice; assay: Medical treatment of RA mice by oral administration of DDS liposomes; details: oral three times/week Day 28 to Day 39; free Pred 100 μg, L-Pred 10 μg per administration
# Method: as §1, §2
# Mice with arthritis received medical treatment by orally administering a therapeutic drug to the mice. The oral administration was performed on a three times/week basis for a period from Day 28 to Day 39. […]
# [3] = test system: Collagen type II induced arthritis (CIA) mice; assay: Test for determining proper amount of prednisolone phosphate for RA mice; details: Day 28 to Day 46
smiles,measurement,setting,value
C[C@]12C=CC(=O)C=C1CC[C@@H]1[C@@H]2[C@@H](O)C[C@@]2(C)[C@H]1CC[C@]2(O)C(=O)COP(=O)(O)O [prednisolone phosphate],Inflammatory activity (IA),"[1]; intravenous 100 μg/injection (200 μg/week) prednisolone phosphate, Day 37",approximately 50%
same,IA compared with other groups / progression of inflammation,"[1]; intravenous twice/week Day 28 to Day 46, free Pred 100 μg/injection, liposomes 10 μg/injection",no evident difference was observed between the IA of the free Pred group and the IA of the Control group
same,"difference in IA among the control, free Pred (until Day 32) and L-Pred groups",[2],no significant difference
same,IA compared with control group,[3]; intravenous 250 μg/injection (500 μg/week),No significant difference
same,rise in IA / progression of the inflammation,[3]; intravenous 500 μg/injection (1000 μg/week),"a rise in IA was not observed, and the progression of the inflammation was suppressed"
